Experimental data as given in publication PMC10810011 (Expert opinion on drug delivery, 2023).

Legend:
[1] = target: T1, Muscarinic M2 (Homo sapiens, UniProt P08172); test: InVEST radioligand filter binding, Muscarinic M2; conditions: M13 20 μM, 100 = no effect
T1 sequence (P08172 1-466): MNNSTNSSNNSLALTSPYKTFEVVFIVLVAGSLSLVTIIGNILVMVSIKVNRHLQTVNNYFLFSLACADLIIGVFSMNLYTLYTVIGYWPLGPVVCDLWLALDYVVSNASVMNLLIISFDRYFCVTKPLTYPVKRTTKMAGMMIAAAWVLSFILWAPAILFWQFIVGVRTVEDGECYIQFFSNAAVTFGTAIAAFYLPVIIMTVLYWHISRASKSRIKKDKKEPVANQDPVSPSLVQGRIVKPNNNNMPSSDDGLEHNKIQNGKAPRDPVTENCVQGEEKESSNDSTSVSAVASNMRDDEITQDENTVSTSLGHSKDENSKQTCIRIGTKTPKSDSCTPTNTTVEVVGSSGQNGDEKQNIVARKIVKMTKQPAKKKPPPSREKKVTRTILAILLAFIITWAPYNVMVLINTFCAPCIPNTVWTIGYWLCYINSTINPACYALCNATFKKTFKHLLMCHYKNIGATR

[2] = target: Muscarinic M1 (Homo sapiens, UniProt P11229); format: binding; conditions: M13 20 μM, 100 = no effect
Sequence of Muscarinic M1 (P11229 whole entry): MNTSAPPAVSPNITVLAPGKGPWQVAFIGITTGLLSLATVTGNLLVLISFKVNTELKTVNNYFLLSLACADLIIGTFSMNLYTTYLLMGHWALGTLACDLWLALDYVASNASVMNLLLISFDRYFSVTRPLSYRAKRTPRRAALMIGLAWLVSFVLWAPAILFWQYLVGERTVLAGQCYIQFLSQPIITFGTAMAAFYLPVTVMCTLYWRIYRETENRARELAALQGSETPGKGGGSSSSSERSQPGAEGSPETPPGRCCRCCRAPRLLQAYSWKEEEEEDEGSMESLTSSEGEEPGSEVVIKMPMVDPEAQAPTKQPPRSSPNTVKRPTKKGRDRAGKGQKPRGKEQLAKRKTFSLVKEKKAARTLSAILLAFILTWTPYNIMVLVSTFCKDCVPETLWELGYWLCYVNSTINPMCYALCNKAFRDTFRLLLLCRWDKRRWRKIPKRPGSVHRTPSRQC

[3] = target: 5-HT1B (Homo sapiens, UniProt P28222); test: InVEST radioligand filter binding, 5-HT1B; conditions: 5-HT1B, M13 20 μM, 100 = no effect
Sequence of 5-HT1B (P28222 whole entry): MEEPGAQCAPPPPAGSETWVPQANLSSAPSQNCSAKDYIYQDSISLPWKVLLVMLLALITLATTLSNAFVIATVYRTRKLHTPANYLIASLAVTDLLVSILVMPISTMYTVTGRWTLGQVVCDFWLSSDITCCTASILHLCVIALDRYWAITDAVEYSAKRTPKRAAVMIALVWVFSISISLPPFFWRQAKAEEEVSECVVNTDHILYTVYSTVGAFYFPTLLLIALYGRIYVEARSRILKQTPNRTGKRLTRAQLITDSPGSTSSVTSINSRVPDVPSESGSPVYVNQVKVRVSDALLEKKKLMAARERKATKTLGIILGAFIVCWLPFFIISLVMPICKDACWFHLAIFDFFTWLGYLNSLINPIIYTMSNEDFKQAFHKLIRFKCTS

[4] = target: PDE3A (Homo sapiens, UniProt Q14432); test: InVEST enzymatic activity, PDE3A; format: biochemical; conditions: M13 20 μM, 100 = no effect
Sequence of PDE3A (Q14432 whole entry): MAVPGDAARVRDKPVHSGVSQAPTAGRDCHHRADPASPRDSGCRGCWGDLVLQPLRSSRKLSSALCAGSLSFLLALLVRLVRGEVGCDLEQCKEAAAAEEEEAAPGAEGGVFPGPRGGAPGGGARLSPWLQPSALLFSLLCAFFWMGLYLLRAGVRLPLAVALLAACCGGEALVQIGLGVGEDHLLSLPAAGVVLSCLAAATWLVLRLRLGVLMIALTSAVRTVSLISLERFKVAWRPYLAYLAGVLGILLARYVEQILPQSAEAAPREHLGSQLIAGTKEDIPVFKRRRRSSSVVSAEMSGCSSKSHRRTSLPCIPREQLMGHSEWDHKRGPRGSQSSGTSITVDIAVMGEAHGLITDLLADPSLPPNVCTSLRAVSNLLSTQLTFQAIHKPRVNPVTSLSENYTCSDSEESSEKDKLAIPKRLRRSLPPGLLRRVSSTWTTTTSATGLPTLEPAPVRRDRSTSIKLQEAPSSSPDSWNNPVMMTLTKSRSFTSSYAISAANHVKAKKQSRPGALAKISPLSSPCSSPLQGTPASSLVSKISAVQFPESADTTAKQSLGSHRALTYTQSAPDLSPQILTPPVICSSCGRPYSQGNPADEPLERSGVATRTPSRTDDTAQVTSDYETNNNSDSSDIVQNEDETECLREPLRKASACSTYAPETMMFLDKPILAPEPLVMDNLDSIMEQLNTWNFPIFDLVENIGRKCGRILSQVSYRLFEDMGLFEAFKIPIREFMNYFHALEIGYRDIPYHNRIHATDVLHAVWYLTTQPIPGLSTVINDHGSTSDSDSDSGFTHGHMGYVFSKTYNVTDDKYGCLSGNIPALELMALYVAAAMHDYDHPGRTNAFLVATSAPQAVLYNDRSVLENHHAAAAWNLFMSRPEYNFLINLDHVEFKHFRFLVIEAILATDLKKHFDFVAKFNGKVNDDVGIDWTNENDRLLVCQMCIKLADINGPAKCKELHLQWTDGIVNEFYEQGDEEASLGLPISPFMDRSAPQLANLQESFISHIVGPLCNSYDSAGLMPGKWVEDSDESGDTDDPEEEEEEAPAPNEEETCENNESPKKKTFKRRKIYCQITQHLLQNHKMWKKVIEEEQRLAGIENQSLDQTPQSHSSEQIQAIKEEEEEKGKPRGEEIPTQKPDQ

[5] = target: 5-HT2B (Homo sapiens, UniProt P41595); test: InVEST radioligand filter binding, 5-HT2B; conditions: M13 20 μM, 100 = no effect
Sequence of 5-HT2B (P41595 whole entry): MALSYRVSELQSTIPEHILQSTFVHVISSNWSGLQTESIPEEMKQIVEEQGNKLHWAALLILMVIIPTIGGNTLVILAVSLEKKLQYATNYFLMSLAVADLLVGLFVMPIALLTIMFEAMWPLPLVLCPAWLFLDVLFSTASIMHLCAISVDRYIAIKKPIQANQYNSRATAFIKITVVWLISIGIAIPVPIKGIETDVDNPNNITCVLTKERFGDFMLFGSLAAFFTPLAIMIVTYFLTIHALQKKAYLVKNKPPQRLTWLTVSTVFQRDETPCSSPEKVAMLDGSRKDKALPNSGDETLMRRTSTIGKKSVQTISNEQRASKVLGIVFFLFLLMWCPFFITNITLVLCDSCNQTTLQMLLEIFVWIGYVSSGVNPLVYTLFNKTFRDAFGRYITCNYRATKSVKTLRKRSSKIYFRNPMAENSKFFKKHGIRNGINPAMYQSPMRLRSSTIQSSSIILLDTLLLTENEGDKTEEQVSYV

[6] = target: D3 dopamine (Homo sapiens, UniProt P35462); test: InVEST radioligand filter binding, D3 dopamine; conditions: M13 20 μM, 100 = no effect
[7] = test system: intestinal microbiota of AOM/DSS-induced CAC mice; test: Intestinal microbiota analysis in AOM/DSS-induced CAC mice; format: in vivo, mouse; conditions: feces day 60
[8] = target: beta1 adrenergic (Homo sapiens, UniProt P08588); test: InVEST radioligand filter binding, beta1 adrenergic; conditions: M13 20 μM, 100 = no effect
[9] = target: Thrombin alpha (Homo sapiens, UniProt P00734); test: InVEST enzymatic activity, Thrombin alpha; format: biochemical; conditions: M13 20 μM, 100 = no effect
[10] = target: Opioid kappa (Homo sapiens, UniProt P41145); test: InVEST radioligand filter binding, Opioid kappa; conditions: M13 20 μM, 100 = no effect
Sequence of Opioid kappa (P41145 whole entry): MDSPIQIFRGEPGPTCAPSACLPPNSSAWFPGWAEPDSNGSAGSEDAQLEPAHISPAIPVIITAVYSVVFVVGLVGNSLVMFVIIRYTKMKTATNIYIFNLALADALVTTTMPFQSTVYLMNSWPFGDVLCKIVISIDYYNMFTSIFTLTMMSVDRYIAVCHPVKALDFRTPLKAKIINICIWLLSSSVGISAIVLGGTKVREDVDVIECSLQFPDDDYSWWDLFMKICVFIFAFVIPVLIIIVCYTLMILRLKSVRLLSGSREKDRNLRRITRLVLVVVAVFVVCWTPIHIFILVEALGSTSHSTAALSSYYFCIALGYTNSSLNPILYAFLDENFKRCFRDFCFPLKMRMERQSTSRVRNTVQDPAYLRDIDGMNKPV

[11] = test system: HCT-116 cells; test: MTT cytotoxicity, 2D HCT-116; format: cell-based, human; conditions: 24 h
[12] = target: PDE4A (Homo sapiens, UniProt P27815); test: InVEST enzymatic activity, PDE4A; format: biochemical; conditions: M13 20 μM, 100 = no effect
Sequence of PDE4A (P27815 whole entry): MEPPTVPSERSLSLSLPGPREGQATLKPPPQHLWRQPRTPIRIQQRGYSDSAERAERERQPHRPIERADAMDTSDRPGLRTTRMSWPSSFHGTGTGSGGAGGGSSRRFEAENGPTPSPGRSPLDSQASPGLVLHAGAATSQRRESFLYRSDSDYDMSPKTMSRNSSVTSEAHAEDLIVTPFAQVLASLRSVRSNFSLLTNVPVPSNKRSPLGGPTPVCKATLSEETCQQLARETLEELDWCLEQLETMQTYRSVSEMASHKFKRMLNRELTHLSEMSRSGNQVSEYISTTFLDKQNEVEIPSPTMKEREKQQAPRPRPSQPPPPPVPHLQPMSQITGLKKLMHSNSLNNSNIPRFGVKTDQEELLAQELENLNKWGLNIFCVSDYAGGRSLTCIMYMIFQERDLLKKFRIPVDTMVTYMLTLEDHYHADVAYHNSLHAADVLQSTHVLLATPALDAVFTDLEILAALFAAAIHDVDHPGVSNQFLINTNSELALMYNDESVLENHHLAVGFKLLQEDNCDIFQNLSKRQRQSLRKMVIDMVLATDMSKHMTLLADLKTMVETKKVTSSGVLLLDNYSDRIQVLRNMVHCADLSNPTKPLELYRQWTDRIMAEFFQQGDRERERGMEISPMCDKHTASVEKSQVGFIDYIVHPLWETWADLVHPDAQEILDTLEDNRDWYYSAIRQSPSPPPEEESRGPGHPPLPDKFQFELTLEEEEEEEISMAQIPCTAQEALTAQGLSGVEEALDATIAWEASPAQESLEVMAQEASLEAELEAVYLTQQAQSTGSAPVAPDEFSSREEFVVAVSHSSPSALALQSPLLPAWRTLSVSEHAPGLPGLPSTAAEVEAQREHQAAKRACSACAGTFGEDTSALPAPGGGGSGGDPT

[13] = test system: 3D Caco-2/BBe cells; test: Cytotoxicity in 3D cultured Caco-2/BBe cells; format: cell-based, human
[14] = test system: HC-CSC (human colon cancer stem cells); test: MTT cytotoxicity, 2D HC-CSC; format: cell-based; conditions: 24 h
[15] = target: Muscarinic M3 (Homo sapiens, UniProt P20309); test: InVEST radioligand filter binding, Muscarinic M3; conditions: M13 20 μM, 100 = no effect
Sequence of Muscarinic M3 (P20309 whole entry): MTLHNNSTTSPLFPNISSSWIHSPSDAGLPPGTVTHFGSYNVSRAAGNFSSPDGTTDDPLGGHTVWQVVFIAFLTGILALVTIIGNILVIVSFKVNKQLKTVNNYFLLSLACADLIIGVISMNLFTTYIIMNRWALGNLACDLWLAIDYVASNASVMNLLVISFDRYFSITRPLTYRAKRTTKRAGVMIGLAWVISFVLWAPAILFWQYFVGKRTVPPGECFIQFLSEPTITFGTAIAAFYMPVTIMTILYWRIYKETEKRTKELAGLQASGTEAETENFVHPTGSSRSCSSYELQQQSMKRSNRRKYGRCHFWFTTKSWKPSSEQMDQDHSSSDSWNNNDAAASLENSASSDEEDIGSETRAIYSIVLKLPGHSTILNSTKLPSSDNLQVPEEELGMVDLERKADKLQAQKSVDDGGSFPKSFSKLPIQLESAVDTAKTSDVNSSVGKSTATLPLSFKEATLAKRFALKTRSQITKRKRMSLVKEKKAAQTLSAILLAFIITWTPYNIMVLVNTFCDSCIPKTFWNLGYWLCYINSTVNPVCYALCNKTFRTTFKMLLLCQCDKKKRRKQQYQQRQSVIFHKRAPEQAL

[16] = target: A1 adenosine (Homo sapiens, UniProt P30542); test: InVEST radioligand filter binding, A1 adenosine; conditions: M13 20 μM, 100 = no effect
Sequence of A1 adenosine (P30542 whole entry): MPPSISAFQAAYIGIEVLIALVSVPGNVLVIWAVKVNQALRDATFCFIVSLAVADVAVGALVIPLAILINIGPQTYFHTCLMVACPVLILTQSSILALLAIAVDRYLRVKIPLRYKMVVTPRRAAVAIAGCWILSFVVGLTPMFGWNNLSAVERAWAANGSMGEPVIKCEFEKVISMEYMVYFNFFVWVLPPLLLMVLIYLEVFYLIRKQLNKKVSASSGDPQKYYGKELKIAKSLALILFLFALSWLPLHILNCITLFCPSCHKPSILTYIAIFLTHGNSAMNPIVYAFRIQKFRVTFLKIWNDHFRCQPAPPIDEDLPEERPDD

[17] = test system: Salmonella typhimurium TA98; test: Ames test, strain TA98; conditions: +S9 or -S9
[18] = target: D1 dopamine (Homo sapiens, UniProt P21728); conditions: M13 20 μM, 100 = no effect
[19] = test system: HIEC-6 cells; test: MTT cytotoxicity, 2D HIEC-6; format: cell-based, human; conditions: HIEC-6 (normal intestinal), 24 h
[20] = Chemical stability in acidic PBS; format: physicochemical; conditions: acidic PBS pH 5.0 or 3.0, 37 °C, 2 h, HPLC
[21] = target: T2, AHR-inhibition (Homo sapiens, UniProt P35869); test: InVEST fluorescence polarization binding/cell-based activity, AHR-inhibition; conditions: M13 20 μM, 100 = no effect
T2 sequence (P35869 11-848): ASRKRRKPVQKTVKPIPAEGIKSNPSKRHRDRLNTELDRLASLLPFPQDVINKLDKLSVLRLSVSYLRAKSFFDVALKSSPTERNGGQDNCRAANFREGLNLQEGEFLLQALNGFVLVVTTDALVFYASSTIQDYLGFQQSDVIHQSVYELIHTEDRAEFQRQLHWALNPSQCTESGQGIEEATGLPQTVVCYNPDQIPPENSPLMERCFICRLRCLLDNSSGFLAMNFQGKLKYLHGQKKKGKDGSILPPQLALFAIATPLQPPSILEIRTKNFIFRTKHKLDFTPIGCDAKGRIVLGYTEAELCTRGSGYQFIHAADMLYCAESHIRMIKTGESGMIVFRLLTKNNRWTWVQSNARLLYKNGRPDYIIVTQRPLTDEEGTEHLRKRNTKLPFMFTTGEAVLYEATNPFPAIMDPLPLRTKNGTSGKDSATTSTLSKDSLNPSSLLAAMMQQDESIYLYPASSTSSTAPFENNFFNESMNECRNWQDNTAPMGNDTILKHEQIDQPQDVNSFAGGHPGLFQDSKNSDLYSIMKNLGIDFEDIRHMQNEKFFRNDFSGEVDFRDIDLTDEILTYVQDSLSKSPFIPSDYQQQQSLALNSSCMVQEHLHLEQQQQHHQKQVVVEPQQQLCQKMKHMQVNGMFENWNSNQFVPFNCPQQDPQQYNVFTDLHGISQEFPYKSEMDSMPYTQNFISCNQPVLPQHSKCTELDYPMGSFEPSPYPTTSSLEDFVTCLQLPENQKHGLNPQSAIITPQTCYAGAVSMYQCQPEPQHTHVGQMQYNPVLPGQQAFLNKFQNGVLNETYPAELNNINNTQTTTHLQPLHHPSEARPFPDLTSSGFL

For `CCCCCC(CC(=O)CCc1ccc(O)c(OC)c1)SC[C@H](NC(=O)CC[C@H](N)C(=O)O)C(=O)NCC(=O)O` (stereo partly drawn) [M13, 5-glutathione-6-shogaol], the “% Activity Data 1” value ([1]; repetition 1) was 93%, the “% Activity Data 2” value ([1]; repetition 2) was 115% and the “% Activity Data 1” value ([2]; repetition 1) was 111%. For the same compound, the “% Activity Data 2” value ([2]; repetition 2) was 113%, the “% Activity Data 1” value ([3]; repetition 1) was 100% and the “% Activity Data 2” value ([3]; repetition 2) was 102%. For the same compound, the “% Activity Data 1” value ([4]; repetition 1) was 93%, the “% Activity Data 2” value ([4]; repetition 2) was 94% and the “% Activity Data 1” value ([5]; repetition 1) was 109%. The “% Activity Data 2” value ([5]; repetition 2) was 113%, the “% Activity Data 1” value ([6]; repetition 1) was 96% and the “% Activity Data 2” value ([6]; repetition 2) was 100%. The “unique species (Venn diagram vs WT and AOM/DSS groups)” value [7] was “three”, the “% Activity Data 1” value ([8]; repetition 1) was 120% and the “% Activity Data 2” value ([8]; repetition 2) was 116%. The “% Activity Data 1” value ([9]; repetition 1) was 96%, the “% Activity Data 2” value ([9]; repetition 2) was 97% and the “% Activity Data 1” value ([10]; repetition 1) was 95%. The “% Activity Data 2” value ([10]; repetition 2) was 93%, the IC50 ([11]; HCT-116, MTT) was 40.1 µM and the “fold by which IC50 against HIEC-6 is higher than against HCT-116” value ([11]; MTT) was 2.5 fold. For the same compound, the “% Activity Data 1” value ([12]; repetition 1) was 93%, the “% Activity Data 2” value ([12]; repetition 2) was 94% and the “sizes of 3D cell spheres” value ([13]; 11 days culture, regardless of the group) was “did not change significantly”. The “green fluorescence intensity of 3D cell spheres (live cells) vs NC group” value ([13]; M13 ≥ 80 μM, day 11, p < 0.05) was “significantly lower”, the “fold by which IC50 against HIEC-6 is higher than against HC-CSC” value [14] was 5.8 fold and the IC50 ([14]; HC-CSC) was 17.4 µM. For the same compound, the “% Activity Data 1” value ([15]; repetition 1) was 100%, the “% Activity Data 2” value ([15]; repetition 2) was 103% and the “% Activity Data 1” value ([16]; repetition 1) was 85%. The “% Activity Data 2” value ([16]; repetition 2) was 87%, the “number of revertant colonies” value ([17]; TA98, 156 ~ 5000 μg/plate) was “did not increase” and the mutation factor ([17]; TA98, all concentrations 156 ~ 5000 μg/plate) was “less than 1.6”. For the same compound, the “% Activity Data 1” value ([18]; repetition 1) was 100%, the “% Activity Data 2” value ([18]; repetition 2) was 116% and the IC50 [19] was over 100 µM. For the same compound, the “relative contents of M13 before and after incubation” value [20] was “consistent”, the “% Activity Data 1” value ([21]; repetition 1) was 98% and the “% Activity Data 2” value ([21]; repetition 2) was 101%.
